Measured values published in publication PMC5218480 (PLoS ONE, 2017).

Tested on: MV-4-11 cells
Test: Gene expression microarray analysis (Affymetrix PrimeView) and GSEA
Type: cell-based, human
Set-up: RFU PODN (11730768_x_at) / Fold change /veh PODN (11730768_x_at) / RFU LINC00158 (11744669_a_at) / Fold change /veh LINC00158 (11744669_a_at) / RFU DUSP10 (11751237_a_at) / Fold change /veh DUSP10 (11751237_a_at) / RFU ID3 (11757404_x_at) / Fold change /veh ID3 (11757404_x_at) / RFU PLEKHG5 (11737974_s_at) / Fold change /veh PLEKHG5 (11737974_s_at) / RFU LRRC4B (11730491_at) / Fold change /veh LRRC4B (11730491_at) / RFU GIMAP4 (11747438_a_at) / Fold change /veh GIMAP4 (11747438_a_at) / RFU KRT8 (11758183_x_at) / Fold change /veh KRT8 (11758183_x_at) / RFU CNN1 (11734310_a_at) / Fold change /veh CNN1 (11734310_a_at) / RFU VPS37D (11726825_at) / Fold change /veh VPS37D (11726825_at) / RFU C10orf10 (11716522_x_at) / Fold change /veh C10orf10 (11716522_x_at) / RFU KIR2DL2 /// KIR2DL4 /// KIR2DL5A /// KIR2DL5B /// KIR2DS1 /// KIR2DS2 /// KIR2DS3 /// KIR2DS4 /// KIR3DL3 /// KIR3DL3 /// KIR3DS1 (11738374_at) / Fold change /veh KIR2DL2 /// KIR2DL4 /// KIR2DL5A /// KIR2DL5B /// KIR2DS1 /// KIR2DS2 /// KIR2DS3 /// KIR2DS4 /// KIR3DL3 /// KIR3DL3 /// KIR3DS1 (11738374_at) / RFU C1QL1 (11718748_at) / Fold change /veh C1QL1 (11718748_at) / RFU TMPRSS4 (11747572_a_at) / Fold change /veh TMPRSS4 (11747572_a_at) / RFU HAMP (11756126_x_at) / Fold change /veh HAMP (11756126_x_at) / RFU RNFT2 (11725882_a_at) / Fold change /veh RNFT2 (11725882_a_at) / RFU NR4A2 (11747474_a_at) / Fold change /veh NR4A2 (11747474_a_at) / RFU ABCC12 (11746883_a_at) / Fold change /veh ABCC12 (11746883_a_at) / RFU TMEM136 (11760407_x_at) / Fold change /veh TMEM136 (11760407_x_at) / RFU CLDN22 /// WWC2 (11732394_at) / Fold change /veh CLDN22 /// WWC2 (11732394_at) / RFU HLA-DPB1 (11760878_x_at) / Fold change /veh HLA-DPB1 (11760878_x_at) / RFU SPINT1 (11716480_a_at) / Fold change /veh SPINT1 (11716480_a_at) / RFU GAP43 (11754022_s_at) / Fold change /veh GAP43 (11754022_s_at) / RFU A4GNT (11735810_at) / Fold change /veh A4GNT (11735810_at) / RFU PRB3 (11715151_x_at) / Fold change /veh PRB3 (11715151_x_at) / RFU TUBB4B (11761932_at) / Fold change /veh TUBB4B (11761932_at) / RFU CAPN14 (11732068_a_at) / Fold change /veh CAPN14 (11732068_a_at) / RFU TMCC2 (11721928_a_at) / Fold change /veh TMCC2 (11721928_a_at) / RFU IRGQ (11745062_a_at) / Fold change /veh IRGQ (11745062_a_at) / RFU FAM174B (11720279_a_at) / Fold change /veh FAM174B (11720279_a_at) / RFU TMPRSS4 (11748680_a_at) / Fold change /veh TMPRSS4 (11748680_a_at) / RFU FAM212B (11763350_a_at) / Fold change /veh FAM212B (11763350_a_at) / RFU PLEKHG5 (11743358_a_at) / Fold change /veh PLEKHG5 (11743358_a_at) / RFU ZSCAN30 (11745921_a_at) / Fold change /veh ZSCAN30 (11745921_a_at) / RFU CMKLR1 (11741424_a_at) / Fold change /veh CMKLR1 (11741424_a_at) / RFU LOC101060620 /// MAPK8IP1 (11723275_at) / Fold change /veh LOC101060620 /// MAPK8IP1 (11723275_at) / RFU SPTSSB (11747773_x_at) / Fold change /veh SPTSSB (11747773_x_at) / RFU PRSS12 (11739890_at) / Fold change /veh PRSS12 (11739890_at) / RFU BIN1 (11741810_x_at) / Fold change /veh BIN1 (11741810_x_at) / RFU WNT11 (11732464_a_at) / Fold change /veh WNT11 (11732464_a_at) / RFU C10orf10 (11716521_a_at) / Fold change /veh C10orf10 (11716521_a_at) / RFU C5orf56 (11738089_at) / Fold change /veh C5orf56 (11738089_at) / RFU CYB561 (11721691_x_at) / Fold change /veh CYB561 (11721691_x_at) / RFU ANKRD19P (11752326_a_at) / Fold change /veh ANKRD19P (11752326_a_at) / RFU OR2T12 /// OR2T33 /// OR2T8 (11738714_s_at) / Fold change /veh OR2T12 /// OR2T33 /// OR2T8 (11738714_s_at) / RFU VCAN (11748164_a_at) / Fold change /veh VCAN (11748164_a_at) / RFU JSRP1 (11732532_at) / Fold change /veh JSRP1 (11732532_at) / RFU KRTAP10-11 (11738290_x_at) / Fold change /veh KRTAP10-11 (11738290_x_at) / RFU MYO3A (11730013_a_at) / Fold change /veh MYO3A (11730013_a_at) / RFU EBF3 (11725865_a_at) / Fold change /veh EBF3 (11725865_a_at) / RFU CAMK2N1 (11719241_x_at) / Fold change /veh CAMK2N1 (11719241_x_at) / RFU C5orf56 (11738088_a_at) / Fold change /veh C5orf56 (11738088_a_at) / RFU OLFML3 (11715873_a_at) / Fold change /veh OLFML3 (11715873_a_at) / RFU LOC100653217 /// NTM (11731650_a_at) / Fold change /veh LOC100653217 /// NTM (11731650_a_at) / RFU MAPK11 (11762145_a_at) / Fold change /veh MAPK11 (11762145_a_at) / RFU FIZ1 (11724087_x_at) / Fold change /veh FIZ1 (11724087_x_at) / RFU OASL (11726364_x_at) / Fold change /veh OASL (11726364_x_at) / RFU SOX15 (11748057_x_at) / Fold change /veh SOX15 (11748057_x_at) / RFU CD79A (11719716_a_at) / Fold change /veh CD79A (11719716_a_at) / RFU HIST1H1D (11736915_at) / Fold change /veh HIST1H1D (11736915_at) / RFU CASKIN2 (11723855_a_at) / Fold change /veh CASKIN2 (11723855_a_at) / RFU LOC730098 (11760151_x_at) / Fold change /veh LOC730098 (11760151_x_at) / RFU OR4N2 (11742367_at) / Fold change /veh OR4N2 (11742367_at) / RFU PRRT2 (11749266_a_at) / Fold change /veh PRRT2 (11749266_a_at) / RFU SNX32 (11753110_a_at) / Fold change /veh SNX32 (11753110_a_at) / RFU CDHR5 (11726645_a_at) / Fold change /veh CDHR5 (11726645_a_at) / RFU RCAN1 (11760418_a_at) / Fold change /veh RCAN1 (11760418_a_at) / RFU FAM167A (11723789_a_at) / Fold change /veh FAM167A (11723789_a_at) / RFU FAM26E (11764081_at) / Fold change /veh FAM26E (11764081_at) / RFU ISYNA1 (11749810_s_at) / Fold change /veh ISYNA1 (11749810_s_at) / RFU ACY1 (11761880_at) / Fold change /veh ACY1 (11761880_at) / RFU 11764098_at / Fold change /veh 11764098_at / RFU SAMD14 (11745864_x_at) / Fold change /veh SAMD14 (11745864_x_at) / RFU NPB (11741838_a_at) / Fold change /veh NPB (11741838_a_at) / RFU TMPRSS6 (11731388_a_at) / Fold change /veh TMPRSS6 (11731388_a_at) / RFU KRTAP10-2 (11738614_at) / Fold change /veh KRTAP10-2 (11738614_at) / RFU ARHGAP8 /// PRR5-ARHGAP8 (11727945_x_at) / Fold change /veh ARHGAP8 /// PRR5-ARHGAP8 (11727945_x_at) / RFU KRTAP5-7 /// NADSYN1 (11734609_at) / Fold change /veh KRTAP5-7 /// NADSYN1 (11734609_at) / RFU RASL12 (11751679_a_at) / Fold change /veh RASL12 (11751679_a_at) / RFU CDKN2B (11736163_a_at) / Fold change /veh CDKN2B (11736163_a_at) / RFU PRF1 (11729649_at) / Fold change /veh PRF1 (11729649_at) / RFU, ZNF638 /// ZNF638-IT1 / Fold change vs veh, ZNF638 /// ZNF638-IT1 / RFU, PANK3 / Fold change vs veh, PANK3 / RFU, SH3YL1 / Fold change vs veh, SH3YL1 / RFU, ZEB2 / Fold change vs veh, ZEB2 / RFU, NRIP1 / Fold change vs veh, NRIP1 / RFU, PTTG1IP / Fold change vs veh, PTTG1IP / RFU, CAPN2 / Fold change vs veh, CAPN2 / RFU, MED14 / Fold change vs veh, MED14 / RFU, SNORA58 / Fold change vs veh, SNORA58 / RFU, C1orf63 / Fold change vs veh, C1orf63 / RFU, LRRFIP1 / Fold change vs veh, LRRFIP1 / RFU, NDUFAF7 / Fold change vs veh, NDUFAF7 / RFU, SLC12A2 / Fold change vs veh, SLC12A2 / RFU, IBTK / Fold change vs veh, IBTK / RFU, ESF1 / Fold change vs veh, ESF1 / Fold change vs veh, TMEM50B / RFU, TAOK1 / Fold change vs veh, TAOK1 / RFU, ACBD3 / Fold change vs veh, ACBD3 / RFU, TMA16 / Fold change vs veh, TMA16 / RFU, RWDD3 / Fold change vs veh, RWDD3 / RFU, BCAT1 / Fold change vs veh, BCAT1 / RFU, EDEM3 / Fold change vs veh, EDEM3 / RFU, TMEM33 / Fold change vs veh, TMEM33 / RFU, WDR75 / Fold change vs veh, WDR75 / RFU, AHCTF1 / Fold change vs veh, AHCTF1 / RFU, TFRC / Fold change vs veh, TFRC / RFU, ZDHHC17 / Fold change vs veh, ZDHHC17 / RFU, NOM1 / Fold change vs veh, NOM1 / RFU, ARL8B / Fold change vs veh, ARL8B / RFU, ZBTB11 / Fold change vs veh, ZBTB11 / RFU, TAMM41 / Fold change vs veh, TAMM41 / RFU, KIAA1704 /// LOC100996395 / Fold change vs veh, KIAA1704 /// LOC100996395 / RFU, ING1 / Fold change vs veh, ING1 / RFU, TRMT61B / Fold change vs veh, TRMT61B / RFU, FUBP3 / Fold change vs veh, FUBP3 / RFU, TP53 / Fold change vs veh, TP53 / RFU, TNKS2 / Fold change vs veh, TNKS2 / RFU, ZFP14 / Fold change vs veh, ZFP14 / RFU, ACTR2 / Fold change vs veh, ACTR2 / RFU, PPP3R1 / Fold change vs veh, PPP3R1 / RFU, PIK3R1 / Fold change vs veh, PIK3R1 / RFU, HNRNPA1 / Fold change vs veh, HNRNPA1 / RFU, RNF170 / Fold change vs veh, RNF170 / RFU, ZNF28 / Fold change vs veh, ZNF28 / RFU, RNGTT / Fold change vs veh, RNGTT / RFU, OGT / Fold change vs veh, OGT / RFU, BRD1 / Fold change vs veh, BRD1 / RFU, MARS / Fold change vs veh, MARS / RFU, ZNF655 / Fold change vs veh, ZNF655 / RFU, FAHD1 / Fold change vs veh, FAHD1 / RFU, BDP1 / Fold change vs veh, BDP1 / RFU, LRRCC1 / Fold change vs veh, LRRCC1 / RFU, ARID1A / Fold change vs veh, ARID1A / RFU, ZNF146 / Fold change vs veh, ZNF146 / RFU, ZNF330 / Fold change vs veh, ZNF330 / RFU, GPN3 / Fold change vs veh, GPN3 / RFU, C9orf123 / Fold change vs veh, C9orf123 / RFU, N4BP2L2 / Fold change vs veh, N4BP2L2 / RFU, ARFIP1 / Fold change vs veh, ARFIP1 / RFU, FAM179B / Fold change vs veh, FAM179B / RFU, BCL10 / Fold change vs veh, BCL10 / RFU, UHRF1BP1L / Fold change vs veh, UHRF1BP1L / RFU, BET1 / Fold change vs veh, BET1 / RFU, CNOT2 / Fold change vs veh, CNOT2 / RFU, ZNF268 / Fold change vs veh, ZNF268 / Fold change vs veh, ZNF507 / RFU, DGCR2 / Fold change vs veh, DGCR2 / RFU, WDSUB1 / Fold change vs veh, WDSUB1 / Fold change vs veh, HSP90B1 /// MIR3652 / RFU, ADSS / Fold change vs veh, ADSS / RFU, GK / Fold change vs veh, GK / RFU, ZNF148 / Fold change vs veh, ZNF148 / RFU, TAF9 / Fold change vs veh, TAF9 / RFU, SLC1A5 / Fold change vs veh, SLC1A5 / RFU, SLMO2 / Fold change vs veh, SLMO2 / RFU, ABCC4 / Fold change vs veh, ABCC4 / RFU, LOC101060439 /// RAP1B / Fold change vs veh, LOC101060439 /// RAP1B / RFU, RFX7 / Fold change vs veh, RFX7 / RFU, GTPBP10 / Fold change vs veh, GTPBP10 / RFU, CNEP1R1 / Fold change vs veh, CNEP1R1 / RFU, BIVM-ERCC5 /// ERCC5 / Fold change vs veh, BIVM-ERCC5 /// ERCC5 / RFU, ILF3 / Fold change vs veh, ILF3 / RFU 11762660_at / Fold change /veh 11762660_at / RFU VCAN (11757783_s_at) / Fold change /veh VCAN (11757783_s_at) / RFU DDX43 (11728927_at) / Fold change /veh DDX43 (11728927_at) / RFU KRT8 (11758188_x_at) / Fold change /veh KRT8 (11758188_x_at) / RFU NKD1 (11759106_at) / Fold change /veh NKD1 (11759106_at) / RFU SRD5A1 (11742802_a_at) / Fold change /veh SRD5A1 (11742802_a_at) / RFU TPSAB1 /// TPSB2 (11721975_s_at) / Fold change /veh TPSAB1 /// TPSB2 (11721975_s_at) / RFU GSTM3 (11746129_a_at) / Fold change /veh GSTM3 (11746129_a_at) / RFU IL23R (11737362_x_at) / Fold change /veh IL23R (11737362_x_at) / RFU TMEM51 (11727254_a_at) / Fold change /veh TMEM51 (11727254_a_at) / RFU PIWIL2 (11732686_x_at) / Fold change /veh PIWIL2 (11732686_x_at) / RFU ORM1 (11744905_x_at) / Fold change /veh ORM1 (11744905_x_at) / RFU CCDC152 (11743942_at) / Fold change /veh CCDC152 (11743942_at) / RFU ECM1 (11717891_a_at) / Fold change /veh ECM1 (11717891_a_at) / RFU IL23R (11748794_a_at) / Fold change /veh IL23R (11748794_a_at) / RFU TNFAIP8L3 (11732012_x_at) / Fold change /veh TNFAIP8L3 (11732012_x_at) / RFU MBOAT4 (11741988_at) / Fold change /veh MBOAT4 (11741988_at) / RFU 11764193_at / Fold change /veh 11764193_at / RFU TMEM53 (11763286_at) / Fold change /veh TMEM53 (11763286_at) / RFU MAGEB2 (11727129_at) / Fold change /veh MAGEB2 (11727129_at) / RFU TMEM200A (11744735_a_at) / Fold change /veh TMEM200A (11744735_a_at) / RFU CCDC152 (11751479_a_at) / Fold change /veh CCDC152 (11751479_a_at) / RFU FAM211A (11726209_a_at) / Fold change /veh FAM211A (11726209_a_at) / RFU RGS16 (11746705_a_at) / Fold change /veh RGS16 (11746705_a_at) / RFU VCAN (11755009_s_at) / Fold change /veh VCAN (11755009_s_at) / RFU RHOB (11743442_s_at) / Fold change /veh RHOB (11743442_s_at) / RFU RGS16 (11720943_a_at) / Fold change /veh RGS16 (11720943_a_at) / RFU RGS16 (11720944_at) / Fold change /veh RGS16 (11720944_at) / RFU, VPS4B / Fold change vs veh, VPS4B / RFU, CREB1 / Fold change vs veh, CREB1 / RFU, DNAJC13 / Fold change vs veh, DNAJC13 / RFU, GNAQ / Fold change vs veh, GNAQ / RFU, CDK5R1 / Fold change vs veh, CDK5R1 / RFU, ZRANB3 / Fold change vs veh, ZRANB3 / RFU, CUL4A / Fold change vs veh, CUL4A / RFU, CCNY / Fold change vs veh, CCNY / RFU, UFL1 / Fold change vs veh, UFL1 / RFU, COG3 / Fold change vs veh, COG3 / RFU, DIAPH2 / Fold change vs veh, DIAPH2 / RFU, SKA2 / Fold change vs veh, SKA2 / RFU, AFF3 / Fold change vs veh, AFF3 / RFU, LMF1 / Fold change vs veh, LMF1 / RFU, IPO11 / Fold change vs veh, IPO11 / RFU, DFFB / Fold change vs veh, DFFB / RFU, FOXP1 / Fold change vs veh, FOXP1 / RFU, CARD8 / Fold change vs veh, CARD8 / RFU, STRN3 / Fold change vs veh, STRN3 / RFU, ADK / Fold change vs veh, ADK / RFU, RASSF2 / Fold change vs veh, RASSF2 / RFU, WIPF1 / Fold change vs veh, WIPF1 / RFU, LARP1B / Fold change vs veh, LARP1B / RFU, RASA1 / Fold change vs veh, RASA1 / RFU, RB1 / Fold change vs veh, RB1 / RFU, PPFIA1 / Fold change vs veh, PPFIA1 / RFU, MAT2A / Fold change vs veh, MAT2A / RFU, CCT5 / Fold change vs veh, CCT5 / RFU, WDR92 / Fold change vs veh, WDR92 / RFU, CUX1 / Fold change vs veh, CUX1 / RFU, TTC7A / Fold change vs veh, TTC7A / RFU, TMEM135 / Fold change vs veh, TMEM135 / RFU, DEPTOR / Fold change vs veh, DEPTOR / RFU, CPM / Fold change vs veh, CPM / RFU, DNAJB6 / Fold change vs veh, DNAJB6 / RFU, CACNA2D3 / Fold change vs veh, CACNA2D3 / RFU, DTX4 / Fold change vs veh, DTX4 / RFU, TFCP2 / Fold change vs veh, TFCP2 / RFU, GMCL1 /// GMCL1P1 / Fold change vs veh, GMCL1 /// GMCL1P1 / RFU, AEBP2 / Fold change vs veh, AEBP2 / RFU, SNHG1 /// SNORD22 /// SNORD25 /// SNORD26 /// SNORD27 /// SNORD28 /// SNORD29 /// SNORD31 / Fold change vs veh, SNHG1 /// SNORD22 /// SNORD25 /// SNORD26 /// SNORD27 /// SNORD28 /// SNORD29 /// SNORD31 / Fold change (Aza/veh), C12orf56 (ProbeSet 11735607_a_at) / Fold change (ACY-1035/veh), C12orf56 (ProbeSet 11735607_a_at) / Fold change (Aza/veh), FGFR1OP (ProbeSet 11751329_s_at) / Fold change (ACY-1035/veh), FGFR1OP (ProbeSet 11751329_s_at) / Fold change (Aza/veh), VPS36 (ProbeSet 11739960_a_at) / Fold change (ACY-1035/veh), VPS36 (ProbeSet 11739960_a_at) / RFU SYPL1 (11715823_x_at) / Fold change /veh SYPL1 (11715823_x_at) / RFU IGFBP7 (11715501_s_at) / Fold change /veh IGFBP7 (11715501_s_at) / RFU REEP3 (11722064_at) / Fold change /veh REEP3 (11722064_at) / RFU IGLL1 (11728026_x_at) / Fold change /veh IGLL1 (11728026_x_at): dose or concentration left out as unconfirmed
Conditions: MV-4-11 cells, 48 hours

## Nc1ccc(-c2cccs2)cc1NC(=O)c1ccc2c(c1)cc(C1CC1)n2CCN1CCOCC1 [ACY-1035]
  Fold change /veh BIN1 (11741810_x_at): 1.15
